Data on nine compounds can be found in patent publication US5420131A, “Cyanomethylpyridine derivatives” (J. Uriach & Cia, S.A., priority 1993, dated 1995).

The IC50 is the point on the concentration scale where inhibition reaches its midpoint. Read a low IC50 as greater potency.

Assay [1] relates to platelet aggregation induced by PAF. Put plainly: Inhibition of platelet aggregation induced by PAF (rabbit platelet rich plasma, Born nephelometric technique). Format: cell-based, male New Zealand albino rabbits. To be noted: Oryctolagus cuniculus, rabbit PRP, 3×10^5 platelets/mm^3, PAF (C18) 15 nM. The method, then: Inhibition of platelet aggregation induced by PAF.
Blood is obtained by cardiac puncture of male New Zealand albino rabbits (b.w. 2-2.5 Kg) and coagulation is prevented by adding 1 part of 3.16% sodium citrate dihydrate in 9 parts of blood. Platelet rich plasma (PRP) is prepared by centrifuging the blood at 250×g for 10 min. at 4° C. and then it is diluted with platelet poor plasma (PPP) obtained by further centrifuging at 3000×g for 10 min. The platelet count is adjusted to 3×10^5 /mm^3. Platelet aggregation induced by PAF (C18, prepared in our laboratory) (15 nM) is determined by the Born nephelometric technique (J. Physiol., 1962, 162, 67) using an aggregometer Chrono-log 500. The activities of the inhibitors are expressed as the IC50 value, that is to say the concentration of the drug needed to inhibit platelet aggregation by 50%.

For assay [2], the system named is hypotensive effect induced by PAF in normotense rats. As to the kind of experiment: Inhibition of the hypotensive effect induced by PAF in normotense rats. Type of assay: in vivo, male Sprage Dawley rats. Particulars: Rattus norvegicus, iv, 0.05 h; i.v., test compound via femoral vein 3 min. before PAF 0.5 mcg/Kg i.v.; anaesthetized rats; read-out: ID50 (inhibition of PAF-induced hypotension). The protocol:
Inhibition of the hypotensive effect induced by PAF in normotense rats.
Male Sprage Dawley rats (b.w. 180-220 g) anaesthetized with sodium pentobarbital (50 mg/Kg, i.p. 1 mL/100 g) are used. In order to measure the arterial pressure, a polyethylene catheter is introduced into the carotid artery. The arterial pressure is recorded with the help of a transducer coupled to a R611 Beckman polygraph. The test compounds are administered through the femoral vein 3 min. before PAF injection (0.5 mcg/Kg, i.v.). Control animals receive only the vehicle.

For `Cc1ncccc1C(C#N)N1CCN(C(=O)Cc2ccc(OCc3ccc4ccccc4n3)cc2)CC1` (stereo not drawn) [Compound 1, 1-[p-(2-Quinolylmethoxy)phenylacetyl]-4-[(2-methyl-3-pyridyl)cyanomethyl]piperazine], half-maximal inhibition in assay [1] (IC50) required 6700 nM. Besides, the ED50 in assay [2] worked out at 0.69 mg/kg.
In the same order, the values of `Cc1ncccc1C(C#N)N1CCN(C(=O)CNC(c2ccccc2)c2ccc(OCc3ccc4ccccc4n3)cc2)CC1` (stereo not drawn) [Compound 2] are 1800 nM and 0.057 mg/kg.
`Cc1ncccc1C(C#N)N1CCN(C(=O)CC(NC(=O)Cc2ccc(OCc3ccc4ccccc4n3)cc2)c2ccccc2)CC1` (stereo not drawn) [Compound 3, 1-[3-[N-[p-(2-quinolylmethoxy)phenylacetyl]]amino-3-phenylpropionyl]-4-[(2-methyl-3-pyridiyl)cyanomethyl]piperazine] returned an IC50 in assay [1] of 80 nM. Moreover, the ED50 in assay [2] was found to be 0.036 mg/kg.
The compound `Cc1ncccc1C(C#N)N1CCN(C(=O)CC(NC(=O)Cc2cccc(OCc3ccc4ccccc4n3)c2)c2ccccc2)CC1` (stereo not drawn) [Compound 4, 1-[3-[N-[3-(2-quinolylmethoxy)phenylacetyl]]amino-3-phenylpropionyl]-4-[(2-methyl-3-pyridyl)cyanomethyl]piperazine] returned an IC50 in assay [1] of 12 nM. In assay [2], the ED50 came out at 0.041 mg/kg.
Consider `Cc1ncccc1C(C#N)N1CCN(C(=O)CC(NC(=O)c2ccc(OCc3ccc4ccccc4n3)cc2)c2ccccc2)CC1` (stereo not drawn) [Compound 5, 1-[3-[N-[p-(2-quinolylmethoxy)benzoyl]]amino-3-phenylpropionyl]-4-[(2-methyl-3-pyridyl)cyanomethyl]piperazine], for which the IC50 in assay [1] turned out to be 680 nM. Also, in assay [2], the ED50 was 0.21 mg/kg.
`Cc1ncccc1C(C#N)N1CCN(C(=O)CC(NC(=O)c2cccc(OCc3ccc4ccccc4n3)c2)c2ccccc2)CC1` (stereo not drawn) [Compound 6, 1-[3-[N-[3-(2-quinolylmethoxy)benzoyl]]amino-3-phenylpropionyl]-4-[(2-methyl-3-pyridyl)cyanomethyl]piperazine] showed an IC50 in assay [1] of 740 nM. Further, the ED50 in assay [2] turned out to be 0.16 mg/kg.
The like results for `N#CC(c1cccnc1)C1CCN(C(=O)CC(NC(=O)c2ccc(OCc3ccc4ccccc4n3)cc2)c2ccccc2)CC1` (stereo not drawn) [Compound 7, 1-[3-[N-[p-(2-quinolylmethoxy)benzoyl]]amino-3-phenylpropionyl]-4-(3-pyridylcyanomethyl)piperidine] were, in that order, 55 nM and 0.25 mg/kg.
The like results for `N#CC(c1cccnc1)C1CCN(C(=O)[C@H](NC(=O)Cc2ccc(OCc3ccc4ccccc4n3)cc2)c2ccccc2)CC1` (stereo partly drawn) [Compound 10, 1-[N-[p-(2-quinolylmethoxy)phenylacetyl]-D-2-phenylglycinyl]-4-(3-pyridylcyanomethyl)piperidine] were, in that order, 550 nM and 0.12 mg/kg.
Consider `N#CC(c1cccnc1)C1CCN(C(=O)[C@H](NC(=O)c2cccc(OCc3ccc4ccccc4n3)c2)c2ccccc2)CC1` (stereo partly drawn) [Compound 13, 1-[N-[3-(2-quinolylmethoxy)benzoyl]-D-2-phenylglycinyl]-4-(3-pyridylcyanomethyl)piperidine], for which the IC50 in assay [1] came to 660 nM. In addition, the ED50 in assay [2] amounted to 0.21 mg/kg.
